Test results published in paper PMC6683142, “The lipid-dependent structure and function of LacY can be recapitulated and analyzed in phospholipid-containing detergent micelles” (Scientific Reports, 2019).

Target: T1, lactose permease (LacY) (Escherichia coli, UniProt P02920, C154G)
T1 construct: LacY with all six native Trp residues and a C-terminal His6-Tag, DDM-solubilized, purified from PE-containing cells (correct topology)
T1 sequence (P02920 1-417 C154G): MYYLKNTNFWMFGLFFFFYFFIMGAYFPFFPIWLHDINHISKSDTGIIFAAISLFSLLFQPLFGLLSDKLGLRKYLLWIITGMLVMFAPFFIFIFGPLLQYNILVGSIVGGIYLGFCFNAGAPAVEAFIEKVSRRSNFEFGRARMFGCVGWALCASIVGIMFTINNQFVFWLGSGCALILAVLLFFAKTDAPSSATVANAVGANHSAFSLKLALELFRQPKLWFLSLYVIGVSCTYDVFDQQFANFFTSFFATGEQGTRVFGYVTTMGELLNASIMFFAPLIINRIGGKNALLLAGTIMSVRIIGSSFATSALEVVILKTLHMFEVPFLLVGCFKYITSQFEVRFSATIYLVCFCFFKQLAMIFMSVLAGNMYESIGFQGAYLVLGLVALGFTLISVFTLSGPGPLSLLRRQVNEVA
Assay: Trp → α-NPG FRET (quenching of W151) on purified protein in DDM micelles
Format: binding

## O=[N+]([O-])c1ccc(O[C@H]2O[C@H](CO)[C@H](O)[C@H](O)[C@H]2O)cc1 [α-NPG]
  Kd: 5.9 µM
